Reference: patent US20260317706A1, “COMPOSITION FOR INDUCING STEM CELLS TO DIFFERENTIATE INTO ASTROCYTES, CONTAINING CPI-455” (CHUNG ANG UNIVERSITY INDUSTRY ACADEMIC COOPERATION …, priority 2023, published 2026)

What was measured:
Type in all cases: cell-based, Sprague-Dawley rat
STAT3 = assay: Western blot of STAT3 expression and phosphorylation in neural stem cells; conditions: 50 μM, 4 days, FIG. 3A
Procedure: (§1) Neural stem cells (NSCs) were cultured and harvested as previously reported (Faseb J 2018, 32 (2), 1108-1119). Specifically, the cells were harvested by dissecting the cerebral cortex from embryos of 14-day pregnant Sprague-Dawley rats (Orient Bio, Seongnam, South Korea). The cells were incubated for 6 days at 37° C. in 5% CO2 in Dulbecco's modified Eagle's medium (DMEM/F12) (Cat no. 12500-062, Gibco, Grand Island, NY, U.S.A.) containing Ham's nutrient mixture F-12 supplemented with 1% antibiotic-antimycotic (Cat no. 15240-062, Gibco), 2% B-27 supplement (Cat no. 17504-044, Gibco), 20 ng/ml EGF (Cat no. GF144, Chemicon, Burlington, MA, U.S.A.), and 20 ng/ml FGF2 (Cat no. GF003AF, Chemicon), so as to form neurospheres. The neurospheres were then dissociated into single cells using Accutase (Cat No. SCR005, Sigma-Aldrich, St. Louis, MO, U.S.A.). The cells were then attached to culture plates for one day in medium enriched with EGF and FGF2. […]
(§2) Chemiluminescence was detected on CP-BU new film (Agfa, Mortsel, Belgium) using western blotting luminol reagent (Cat no. sc-2048, Santa Cruz Biotechnology). Band intensity was quantified using ImageJ version 2.3.0. GAPDH (Glyceraldehyde-3-phosphate dehydrogenase) was measured as a housekeeping protein.

gfap mRNA = assay: RT-qPCR of gfap mRNA in differentiating neural stem cells; conditions: 50 μM, 3 days without EGF and FGF2, vs 0.1% DMSO, FIG. 1B
Procedure: as §1
(§3) RNA was extracted using TRIzol® reagent (Cat no. 15596018, Thermo Fisher, Waltham, MA, U.S.A.) and dissolved in diethylpyrocarbonate-treated water (Cat no. C-9030, Bioneer, Daejeon, South Korea). Complementary DNA (cDNA) was synthesized from 1 μg of RNA per sample using a QuantiTect reverse transcriptase kit (Cat no. 205311, Qiagen, Hilden, Germany). […]

bmp2 mRNA = assay: RT-qPCR of il-6, lif, cntf and bmp2 mRNA in neural stem cells; conditions: 3 days, FIG. 3B
Procedure: as §1, §3

GFAP = assay: Western blot of TUBB3, GFAP and OLIG2 in differentiating neural stem cells; conditions: NSCs without EGF and FGF2, 4 days, vs 0.1% DMSO, FIG. 1A
Procedure: as §1
as §2, with “protein. […]” for “protein.”

OLIG2 = assay: Western blot of OLIG2 in differentiating neural stem cells; conditions: NSCs without EGF and FGF2, 4 days, vs 0.1% DMSO, FIG. 1A
Procedure: as §1
as §2, with “protein. […]” for “protein.”

TUBB3 = assay: Western blot of TUBB3 in differentiating neural stem cells; conditions: NSCs without EGF and FGF2, 4 days, vs 0.1% DMSO, FIG. 1A
Procedure: as §1
as §2, with “protein. […]” for “protein.”

lif mRNA = assay: RT-qPCR of lif mRNA in neural stem cells; conditions: 3 days, CPI-455-induced astrocytogenesis
Procedure: as §1, §3

neural stem cells (NSCs) = assay: Immunocytochemistry (ICC) of differentiating neural stem cells
Procedure: Neural stem cells (NSCs) were cultured and harvested as previously reported (Faseb J 2018, 32 (2), 1108-1119). Specifically, the cells were harvested by dissecting the cerebral cortex from embryos of 14-day pregnant Sprague-Dawley rats (Orient Bio, Seongnam, South Korea). The cells were incubated for 6 days at 37° C. in 5% CO2 in Dulbecco's modified Eagle's medium (DMEM/F12) (Cat no. 12500-062, Gibco, Grand Island, NY, U.S.A.) containing Ham's nutrient mixture F-12 supplemented with 1% antibiotic-antimycotic (Cat no. 15240-062, Gibco), 2% B-27 supplement (Cat no. 17504-044, Gibco), 20 ng/ml EGF (Cat no. GF144, Chemicon, Burlington, MA, U.S.A.), and 20 ng/ml FGF2 (Cat no. GF003AF, Chemicon), so as to form neurospheres. The neurospheres were then dissociated into single cells using Accutase (Cat No. SCR005, Sigma-Aldrich, St. Louis, MO, U.S.A.). The cells were then attached to culture plates for one day in medium enriched with EGF and FGF2. Next, the NSCs were treated with DMEM/F12 medium containing 1% antibiotic-antimycotic, 2% B-27 supplement, and either DMSO (Cat no. 472301, Sigma-Aldrich) or various concentrations of CPI-455 (Cat no. HY-100421, Medchemexpress, Princeton, NJ, U.S.A.) dissolved in DMSO. The medium was replaced every 2 days. Cells for western blot and immunostaining were cultured for 4 days after treatment with CPI-455. Cells for RT-qPCR and ChIP-qPCR were cultured for 3 days after treatment with CPI-455.
Immunocytochemistry was performed as previously reported (Faseb J 2018, 32 (2), 1108-1119). Specifically, the cells were fixed in 4% paraformaldehyde solution (Cat no. P231, Biosesang, Seongnam, South Korea) for 30 minutes. The cells were blocked with 5% goat serum (Cat no. S26, Millipore) diluted in 0.2% Triton X-100 (Cat no. 0694-1L, VWR International, Radnor, PA, U.S.A.).
The cells were stained for 1 hour with the following primary antibodies: TUBB3 (1:1000; Cat no. T5076, Sigma-Aldrich) and GFAP (1:500; Cat no. Z0334, Dako, Santa Clara, CA, U.S.A.). Next, the following secondary antibodies were applied for 30 minutes: Alexa488 goat anti-mouse IgG (1:1000; Cat no. A21131, Invitrogen, Waltham, MA, U.S.A.) and Cy3 goat anti-rabbit IgG (1:1000; Cat no. 111-165-144, Jackson, West Grove, PA, U.S.A.).
The nuclei were stained by treating the cells with 0.01% DAPI (4′,6-diamidino-2-phenylindole) (Cat No. D9542, Sigma-Aldrich) in PBS solution for 5 minutes. Fluorescent images were captured using a Leica DM IL inverse fluorescent microscope and LAS X software (Leica, Wetzlar, Germany).
NSCs proliferate in the presence of an epidermal growth factor (EGF) and […] growth factor-2 (FGF2), and in the absence of growth factors in a medium, NSCs differentiate into neurons and astrocytes. […]

[1] = 50 μM, 4 days without EGF and FGF2, vs 0.1% DMSO, FIGS. 2A and 2B

Question: How did the “phosphorylated STAT3 (pSTAT3) with respect to total STAT3” value (STAT3) turn out when `CC(C)c1c(-c2ccccc2)[nH]c2c(C#N)cnn2c1=O` [CPI-455, 4,7-dihydro-6-(1-methylethyl)-7-oxo-5-phenyl-pyrazolo[1,5-a]pyrimidine-3-carbonitrile] was run?
Answer: significantly increased

Question: What about the “gfap mRNA expression compared to the control” value (gfap mRNA) of the same compound?
Answer: significantly increased

Question: What about the “bmp2 mRNA expression” value (bmp2 mRNA; 50 μM) of the same compound?
Answer: significantly increased

Question: What about the “bmp2 mRNA among the investigated cytokines (il-6, lif, cntf, bmp2)” value (bmp2 mRNA; comparison with il-6, lif, cntf) of the same compound?
Answer: only cytokine mRNA that showed a significant increase

Question: And the “GFAP protein expression compared to the control” value (GFAP)?
Answer: significantly increased

Question: What about the OLIG2 protein expression (OLIG2) of the same compound?
Answer: no significant change

Question: What about the TUBB3 protein expression (TUBB3) of the same compound?
Answer: no significant change

Question: And the lif expression (lif mRNA)?
Answer: without an increase

Question: And the “number of GFAP-positive cells” value (neural stem cells (NSCs); [1])?
Answer: significantly increased

Question: What about the “percentage of TUBB3-positive cells” value (neural stem cells (NSCs); [1]) of the same compound?
Answer: did not show any significant difference

Question: And the “number of DAPI-positive cells” value (neural stem cells (NSCs); 4 days without EGF and FGF2, vs 0.1% DMSO)?
Answer: No significant difference

Question: What about the “cytotoxicity during NSC differentiation” value (neural stem cells (NSCs); 4 days, inferred from DAPI-positive cell number) of the same compound?
Answer: not inducing cytotoxicity
